SMILES strings stand for the structures. Where “and” joins values, the source holds several entries; their conditions need not be identical. Equal values may be shown once.

For one test, the system named is K562 cells. The test is described as follows: Cell cycle analysis by flow cytometry. Type of test: cell-based, human. The settings on record: 24 h; for K562 cells in SubG1 phase: control 4.5 ± 0.9; for K562 cells in G2/M phase: control 23.1 ± 1.7; for K562 cells in S phase: control 31.9 ± 1.0; for K562 cells in G0/G1 phase: control 40.5 ± 1.3; for Total percentage of K562 cells in the SubG1 and G0/G1 phases: control 45.0%. An excerpt: Since growth inhibition may be a result of cell cycle arrest at a particular point, the specific antiproliferative activity of several cycloadducts was further evaluated by flow cytometry to study their impact on the progression of the cell cycle in K562 cells. The assay utilizes propidium iodide-based staining of DNA content to distinguish and measure the accumulation of cells in each cell cycle phase (SubG, G0/G1, S and G2/M).
The distribution of K562 cells in the G0/G1-, S- and G2/M-phases of the cell cycle was obtained by quantification of DNA content using flow cytometry in DAPI-stained cells. Briefly, cells were seeded at a density of 5 × 10^4 cells per well in 24-well plates. […] After incubation with drugs, the cells were harvested by pipetting. This was followed by treatment with 0.2 mg/mL saponin (Fluka, Waltham, MA, USA) and 0.05 mg/mL DAPI (Thermo scientific, Rockford, IL, USA). After washing, the samples were analyzed using a standard flow cytometer (BD FACSCanto II, Becton Dickinson, San Jose, CA, USA). A total of 10,000 events were acquired for the samples. Data processing was performed using the BD FACSDiva 9.0 software.
(In general: In flow cytometry, cells or beads pass a laser one at a time.)

Test [1] deals with human melanoma (Sk-mel-2) cell line. The test is described as follows: Cell motility by scratch test. Format: cell-based. The following applies: 10 μg/mL, 36 h, serum-free DMEM; nontreated cells 69.5 ± 17.2. The procedure:
To assess the potential ability of spiro-fused [3-azabicyclo[3.1.0]hexane]oxindoles 4, 11, 12, 18, 24 and cyclopropa[a]pyrrolizidine-2,3′-oxindole 2 to inhibit metastasis associated with cell motility, a scratch test was performed on the human melanoma (Sk-mel-2) cell line. Different fields were analyzed by bright field, and each scratch area was photographed at 0 and 36 h for non-toxic and fast cell visualization. Nontreated Sk-mel-2 cells filled 69.5 ± 17.2, 41.5 ± 5.3, 59.7 ± 8.1, 49.3 ± 5.3, 43.0 ± 12.6, 26.1 ± 2.5 and 55.9 ± 8.6% of the scratched strip while under treatment with spiro-fused oxindole derivatives 2, 4, 11, 12, 18 and 24 cells, respectively.
Cells were seeded at a density of 5 × 10^5 cells per dish onto petri dishes and grown to confluency. A 200 μL pipette tip was used to make scratch wounds and detached cells were removed after that by washing with phosphate-buffered saline. Culture media was replaced with serum-free DMEM in order to inhibit cell proliferation. Compounds to be screened were added at a dose of 10 μg/mL to the cultures and incubated for 36 h. Different fields were analyzed by bright field, and each scratch area was photographed at 0 and 36 h. Images were captured using an Axio Observer Z1 confocal microscope (Carl Zeiss MicroImaging GmbH, Jena, Germany). The percent of wound closure in five randomly chosen fields was calculated with ImageJ software, 1.52v.

In the case of `COC(=O)C1C2(c3ccccc3)C(Cc3ccc(O)cc3)NC3(C(=O)Nc4ccccc43)C12c1ccccc1` (centres unmarked) [Compound 17], in the test with K562 cells (5 μg/mL), the “K562 cells in SubG1 phase” value was 2.5 ± 0.3%, the “K562 cells in G2/M phase” value was found to be 16.7 ± 1.0%, the “K562 cells in S phase” value turned out to be 25.1 ± 0.4% and the “K562 cells in G0/G1 phase” value worked out at 55.6 ± 0.3%. Besides, in the test with K562 cells (10 μg/mL), the “K562 cells in SubG1 phase” value is given as 5.3 ± 0.4%, the “K562 cells in G2/M phase” value was determined as 8.8 ± 0.4%, the “K562 cells in S phase” value was 14.3 ± 0.1% and the “K562 cells in G0/G1 phase” value was found to be 71.5 ± 0.5%. Besides, the “Total percentage of K562 cells in the SubG1 and G0/G1 phases” value (“Total percentage of K562 cells” for short) with K562 cells (10 μg/mL) is listed as 74.0–77.5%. In addition, in the test on K562 cells (20 μg/mL), the “K562 cells in SubG1 phase” value came out at 1.8 ± 0.2%, the “K562 cells in G2/M phase” value turned out to be 7.2 ± 0.3%, the “K562 cells in S phase” value was determined as 16.4 ± 0.5% and the “K562 cells in G0/G1 phase” value is 74.5 ± 0.8%.

Turning to `CSCCC1NC2(C(=O)Nc3ccccc32)C2(c3ccccc3)C(c3ccccc3)C12c1ccccc1` (centres unmarked) [Compound 24], the “Part of the scratched strip filled by Sk-mel-2 cells” value (“Part of the scratched strip filled” below) in test [1] is 55.9 ± 8.6%.

For the compound `CC(C)C1NC2(C(=O)Nc3ccccc32)C2(c3ccccc3)C(c3ccccc3)C12c1ccccc1` (centres unmarked) [Compound 8], in the test on K562 cells (5 μg/mL), the “K562 cells in SubG1 phase” value is 2.1 ± 0.1%, the “K562 cells in G2/M phase” value is on record as 9.2 ± 0.3%, the “K562 cells in S phase” value was found to be 25.7 ± 0.1% and the “K562 cells in G0/G1 phase” value was 63.1 ± 0.4%. For the same compound, in the test on K562 cells (10 μg/mL), the “K562 cells in SubG1 phase” value came to 4.1 ± 0.2%; the “K562 cells in G2/M phase” value worked out at 5.9 ± 0.2%; the “K562 cells in S phase” value was 16.6 ± 0.2%; the “K562 cells in G0/G1 phase” value is 73.5% and 73.5 ± 0.5%. For the same compound, the “Total percentage of K562 cells” value in the test with K562 cells (10 μg/mL) is 74.0–77.5%. Further, in the test on K562 cells (20 μg/mL), the “K562 cells in SubG1 phase” value was 3.6 ± 0.2%, the “K562 cells in G2/M phase” value came to 7.1 ± 0.1%, the “K562 cells in S phase” value worked out at 17.0 ± 0.2% and the “K562 cells in G0/G1 phase” value amounted to 72.4 ± 0.2%.

On to `NC(=O)CC1NC2(C(=O)Nc3ccccc32)C2(c3ccccc3)C(c3ccccc3)C12c1ccccc1` (centres unmarked) [Compound 18], for which the “Part of the scratched strip filled” value in test [1] is listed as 26.1 ± 2.5%. Also, in the test on K562 cells (5 μg/mL), the “K562 cells in SubG1 phase” value amounted to 3.2 ± 0.1%, the “K562 cells in G2/M phase” value is on record as 14.4 ± 0.5%, the “K562 cells in S phase” value is on record as 31.4 ± 0.1% and the “K562 cells in G0/G1 phase” value was 51.0 ± 0.7%. In the test on K562 cells (10 μg/mL), the “K562 cells in SubG1 phase” value is recorded as 3.9 ± 0.2%, the “K562 cells in G2/M phase” value was 7.0 ± 0.4%, the “K562 cells in S phase” value is recorded as 19.0 ± 0.6% and the “K562 cells in G0/G1 phase” value is 70.1 ± 0.5%. For the same compound, in the test with K562 cells (10 μg/mL), the “Total percentage of K562 cells” value is given as 74.0–77.5%. Also, in the test with K562 cells (20 μg/mL), the “K562 cells in SubG1 phase” value amounted to 3.6 ± 0.1%, the “K562 cells in G2/M phase” value was 8.6 ± 0.3%, the “K562 cells in S phase” value was 22.8 ± 0.4% and the “K562 cells in G0/G1 phase” value is given as 65.0 ± 0.4%.

As to `CC[C@H](C)C1NC2(C(=O)Nc3ccccc32)C2(c3ccccc3)C(C(=O)OC)C12c1ccccc1` (some centres unmarked) [Compound 4], in test [1], the “Part of the scratched strip filled” value is 59.7 ± 8.1%. In the test with K562 cells (5 μg/mL), the “K562 cells in SubG1 phase” value was determined as 4.3 ± 0.2%, the “K562 cells in G2/M phase” value stood at 16.5 ± 0.2%, the “K562 cells in S phase” value is listed as 26.6 ± 0.7% and the “K562 cells in G0/G1 phase” value stood at 52.6 ± 0.7%. In the test with K562 cells (10 μg/mL), the “K562 cells in SubG1 phase” value is recorded as 4.8 ± 0.5%, the “K562 cells in G2/M phase” value came to 11.9 ± 0.6%, the “K562 cells in S phase” value was 26.4 ± 0.3% and the “K562 cells in G0/G1 phase” value is listed as 56.9 ± 0.6%. Further, in the test on K562 cells (20 μg/mL), the “K562 cells in SubG1 phase” value is given as 4.9 ± 0.2%, the “K562 cells in G2/M phase” value is reported as 6.9 ± 0.4%, the “K562 cells in S phase” value amounted to 17.4 ± 0.4% and the “K562 cells in G0/G1 phase” value is recorded as 71.2 ± 0.4%.

Turning to `O=C1Nc2ccc([N+](=O)[O-])cc2C12N1CCCC1C1(c3ccccc3)C(c3ccccc3)C12c1ccccc1` (centres unmarked) [Compound 2], in test [1], the “Part of the scratched strip filled” value is listed as 41.5 ± 5.3%. Besides, in the test with K562 cells (5 μg/mL), the “K562 cells in SubG1 phase” value is reported as 5.3 ± 0.3%, the “K562 cells in G2/M phase” value is given as 17.4 ± 0.4%, the “K562 cells in S phase” value is 29.5 ± 0.6% and the “K562 cells in G0/G1 phase” value worked out at 47.7 ± 0.5%. In addition, in the test with K562 cells (10 μg/mL), the “K562 cells in SubG1 phase” value is 7.7% and 7.7 ± 0.4%; the “K562 cells in G2/M phase” value amounted to 7.8 ± 0.3%; the “K562 cells in S phase” value amounted to 15.6 ± 0.4%; the “K562 cells in G0/G1 phase” value was determined as 68.8 ± 0.5%. In addition, the “Total percentage of K562 cells” value in the test on K562 cells (10 μg/mL) was 74.0–77.5%. In addition, in the test on K562 cells (20 μg/mL), the “K562 cells in SubG1 phase” value came out at 5.8 ± 0.3%, the “K562 cells in G2/M phase” value is recorded as 7.3 ± 0.2%, the “K562 cells in S phase” value turned out to be 14.5 ± 0.2% and the “K562 cells in G0/G1 phase” value stood at 72.5 ± 0.5%.

(Values after article PMC11680018, “Study of Cytotoxicity of Spiro-Fused [3-Azabicyclo[3.1.0]hexane]oxindoles and Cyclopropa[a]pyrrolizidine-oxindoles Against Tumor Cell Lines” (Pharmaceuticals, 2024).)
